Legend:
locomotor activity = test: Activity and Screen Test done orally in rats: locomotor activity; format: in vivo
Method: Immediately following the screen test, the final phase of testing is initiated by placing each group of three mice in one actophotometer (Life Sciences, 22, 1067-1076, 1978). The actophotometer consists of a cylindrical chamber whose center is occupied by another cylinder which contains the illumination for six photocells located on the perimeter of the chamber. Six light-beam interruptions equal one count. Locomotor activity is recorded by computer at ten minute intervals for 60 minutes.
(§1) The data obtained from the screen test are expressed as percent of mice falling off the screen. Data derived from locomotor activity of drug treated mice are compared to the activity of vehicle treated animals and are expressed as percent inhibition of spontaneous locomotion. All percentages reported for inhibition of locomotion (LI) are based upon data accumulated for one hour. Both phases of testing are graded: A=60-100%; C=31-59%; and N=0-30%. An overall dose rating is obtained by the following criteria:
(§2) *This was done orally in rats, rather than IP in mice.

[1] = system: animals falling off the inverted screen; test: Activity and Screen Test done orally in rats: screen test; format: in vivo
Method: A two part testing procedure is started one hour postinjection. First, the screen test (ST) is performed (see Pharmac. Biochem. Behav. 6, 351-353, 1977). Briefly this test consists of placing mice on individual wire screens which are then rotated 180 degrees at the start of a 60 second observation period. The number of mice falling off the inverted screen is recorded.
as §1, §2

adenosine A1 receptor = target: T1, adenosine A1 receptor (Rattus norvegicus, UniProt P25099); test: Adenosine Receptor Binding--A1 Receptor Affinity (RBA1), [3H]-CHA displacement; details: 1.0 nM [3H]-CHA, rat brain, 25° C, 1 h; read-out: RBA-1 (IC50, A1 receptor affinity)
T1 construct: Whole brain minus cerebellum and brainstem from male Long Evans rats; from tissue; host or cells: rat whole brain minus cerebellum and brainstem, membranes
T1 sequence (P25099 1-326): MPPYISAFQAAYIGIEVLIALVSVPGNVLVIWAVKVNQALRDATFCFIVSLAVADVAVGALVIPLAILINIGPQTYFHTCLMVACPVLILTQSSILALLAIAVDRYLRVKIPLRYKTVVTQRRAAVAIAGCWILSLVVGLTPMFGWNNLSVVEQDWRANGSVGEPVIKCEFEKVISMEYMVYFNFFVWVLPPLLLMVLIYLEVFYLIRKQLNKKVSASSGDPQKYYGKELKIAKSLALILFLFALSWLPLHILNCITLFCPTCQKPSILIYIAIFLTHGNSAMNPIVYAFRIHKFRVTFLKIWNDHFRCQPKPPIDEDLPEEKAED
Method: Adenosine Receptor Binding--A1 Receptor Affinity (RBA1)
Whole brain minus cerebellum and brainstem from male Long Evans rats (105-200 g) was homogenized in 30 volumes of ice-cold 0.05M Tris-HCl buffer pH 7.7 using a Brinkman Polytron PT-10, (setting number 6 for 20 seconds) and centrifuged for ten minutes at 20,000×g (Sorvall RC-2), 4° C. The supernatant was discarded, and the pellet was resuspended and centrifuged as before. The pellet was resuspended in 20 ml Tris-HCl buffer containing two International Units/ml of adenosine deaminase (Sigma type III from calf intestinal mucosa), incubated at 37° C. for 30 minutes, then subsequently at 0° C. for ten minutes. The homogenate was again centrifuged, and the final pellet was resuspended in ice-cold 0.05M Tris-HCl buffer pH 7.7 to a concentration of 20 mg/ml original wet tissue weight and used immediately.
Tissue homogenate (10 mg/ml) was incubated in 0.05M Tris-HCl buffer pH 7.7 containing 1.0 nM ((^3 H))-N^6 -cyclohexyladenosine ([^3 H]-CHA) with or without test agents in triplicate for one hour at 25° C. Incubation volume was 2 ml. Unbound [^3 H]-CHA was separated by rapid filtration under reduced pressure through Whatman glass fiber (GF/B) filters. The filters were rinsed three times with 5 ml of ice cold 0.05M Tris-HCl buffer pH 7.7. The radio-labeled ligand retained on the filter was measured by liquid scintillation spectrophotometry after shaking the filters for one hour or longer on a mechanical shaker in 10 ml of Beckman Ready-Solv HP scintillation cocktail.
Nonspecific binding was defined as the binding which occured in the presence of 1 mM theophylline. The concentration of test agent which inhibited 50% of the specific binding (IC50) was determined by nonlinear computer curve fit. The Scatchard plot was calculated by linear regression of the line obtained by plotting the amount of radioligand bound (pmoles/gram of tissue) versus [formula] Since the amount of radioligand bound was a small fraction of the total amount added, free radioligand was defined as the concentration of (nM) of radioligand added to the incubation mixture. The Hill coefficient was calculated by linear regression of the line obtained by plotting the log of the bound radioligand vs the log of the [formula] The maximal number of binding sites (Bmax) was calculated from the Scatchard plot.

adenosine A2 receptor = target: T2, adenosine A2 receptor (Rattus norvegicus, UniProt P30543); test: Adenosine Receptor Binding--A2 Receptor Affinity (RBA2), [3H]NECA displacement; format: rat (Sprague-Dawley striatal membranes); details: 4 nM [3H]NECA + 50 nM N6-cyclopentyladenosine, rat striatum, 25° C, 60 min; read-out: RBA-2 (IC50, A2 receptor affinity)
T2 construct: Brains were thawed and then kept on ice while the striata were dissected out; tissue Pel-Freez (Rogers, Arkansas) (rat brains); host or cells: rat striatum, membranes
Method: Adenosine Receptor Binding--A2 Receptor Affinity (RBA2)
Brains from 200-500 g mixed sex Sprague-Dawley rats were purchased from Pel-Freez (Rogers, Arkansas). Fresh brains from male Long-Evans hooded rats (Blue Spruce Farms, Altamont, NY) gave essentially identical results. Brains were thawed and then kept on ice while the striata were dissected out. Striata were disrupted in 10 vol of ice-cold 50 mM Tris.HCl (pH 7.7 at 25° C., pH 8.26 at 5° C.) (Tris) for 30 seconds in a Polytron PT-10 (Brinkmann) at setting 5. The suspension was centrifuged at 50,000×g for ten minutes, the supernatant discarded, the pellet resuspended in 10 vol ice-cold Tris as above, recentrifuged, resuspended at 1 g/5 ml, and stored in plastic vials at -70° C. (stable for at least six months). When needed, tissue was thawed at room temperature, disrupted in a Polytron, and kept on ice until used.
All incubations were for 60 minutes at 25° C. in 12×75 mm glass tubes containing 1 ml Tris with 5 mg original tissue weight of rat weight of rat striatal membranes, 4 nM [^3 H]-N-ethyl adenosine-5'-carboxamide ([^3 H]NECA), 50 nM N^6 -cyclopentyladenosine (to eliminate A1 receptor binding), 10 mM MgCl2, 0.1 units/ml of adenosine deaminase and 1% dimethylsulfoxide. N^6 -Cyclopentyladenosine was dissolved at 10 mM in 0.02N HCl and diluted in Tris. Stock solutions and dilutions of N^6 -cyclopentyladenosine could be stored at -20° C. for several months. Test compounds were dissolved at 10 mM in dimethylsulfoxide on the same day as the experiment, and diluted in dimethylsulfoxide to 100× the final incubation concentration. Control incubations received an equal volume (10 μl) of dimethylsulfoxide; the resulting concentration of dimethylsulfoxide had no effect on binding. [^3 H]NECA was diluted to 40 nM in Tris. The membrane suspension (5 mg/0.79 ml) contained sufficient MgCl2 and adenosine deaminase to give 10 mM and 0.1 units/ml, respectively, final concentration in the incubation. […] After all additions, the rack of tubes was vortexed, and the tubes were then incubated for 60 min at 25° C. in a shaking water bath. The rack of tubes was vortexed an additional time halfway through the incubation.
Incubations were terminated by filtration through 2.4 cm GF/B filters under reduced pressure. Each tube was filtered as follows: the contents of the tube were poured on the filter, 4 ml of ice-cold Tris were added to the tube and the contents poured onto the filter, and the filter was washed twice with 4 ml of ice-cold Tris. The filtration was complete in about twelve seconds. Filters were put in scintillation vials, 8 ml of Formula 947 scintillation fluid added, and the vials left overnight, shaken, and counted in a liquid scintillation counter at 40% efficiency.
Nonspecific binding was defined as binding in the presence of 100 μM N^6 -cyclopentyladenosine, and specific binding was defined as total binding minus nonspecific binding. The IC50 was calculated by weighted nonlinear least squares curve-fitting to the mass-action equation. [formula] where Y is cpm bound
T is cpm total binding without drug
S is cpm specific binding without drug
D is the concentration of drug and
K is the IC50 of the drug
Weighting factors were calculated under the assumption that the standard deviation was proportional to the predicted value of Y. Nonspecific binding was treated as a very large (infinite) concentration of drug in the computer analysis.

T2 sequence (P30543 whole entry): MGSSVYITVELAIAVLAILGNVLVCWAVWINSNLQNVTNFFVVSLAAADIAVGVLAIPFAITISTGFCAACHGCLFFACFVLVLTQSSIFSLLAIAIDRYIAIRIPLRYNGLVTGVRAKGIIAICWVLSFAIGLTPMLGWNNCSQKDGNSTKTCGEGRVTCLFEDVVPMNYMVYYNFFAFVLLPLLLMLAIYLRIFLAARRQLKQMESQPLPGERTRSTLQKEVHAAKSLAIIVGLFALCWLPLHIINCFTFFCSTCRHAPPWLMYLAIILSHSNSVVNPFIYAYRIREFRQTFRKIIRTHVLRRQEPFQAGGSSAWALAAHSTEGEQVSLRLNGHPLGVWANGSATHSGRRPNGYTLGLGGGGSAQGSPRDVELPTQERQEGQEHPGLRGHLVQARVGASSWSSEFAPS

Screen test failure ([1]; 0.1 mg/kg orally) [%]	Screen test failure ([1]; 0.3 mg/kg orally) [%]	Screen test failure ([1]; 1 mg/kg orally) [%]	IC50 (adenosine A1 receptor) [nM]	IC50 (adenosine A2 receptor) [nM]	Screen test failure ([1]; 3 mg/kg orally) [%]	Screen test failure ([1]; 10 mg/kg orally) [%]	Compound	Inhibition of locomotor activity (locomotor activity; 0.1 mg/kg orally) [%]	Inhibition of locomotor activity (locomotor activity; 0.3 mg/kg orally) [%]	Inhibition of locomotor activity (locomotor activity; 1 mg/kg orally) [%]	Inhibition of locomotor activity (locomotor activity; 3 mg/kg orally) [%]	Inhibition of locomotor activity (locomotor activity; 10 mg/kg orally) [%]
33	11	44					CCNC(=O)[C@H]1O[C@@H](n2cnc3c(NC4CC5CCC4C5)ncnc32)[C@H](O)[C@@H]1O (relative stereo) [Example 9, N-6-Norbornyladenosine-5'ethylcarboxamide]	37	69	89		
			29	161			CCNC(=O)[C@H]1O[C@@H](n2cnc3c(N[C@@H]4CCc5ccccc54)ncnc32)[C@H](O)[C@@H]1O [Example 2, (R)-N-6-(1-indanyl) adenosine-5'-ethylcarboxamide]					
22	6	17	0.9	198	22	72	CCNC(=O)[C@H]1O[C@@H](n2cnc3c(NC4CCCC4)ncnc32)[C@H](O)[C@@H]1O [Example 4, N6-cyclopentyladenosine-5'-ethylcarboxamide]	33	36	81	84	84
			16	2680			CCOC(=O)[C@H]1O[C@@H](n2cnc3c(N[C@H](C)Cc4ccccc4)ncnc32)[C@H](O)[C@@H]1O [Example 7, (R)-N-6-[(2-Phenyl-1-methyl)ethyl]-adenosine-5'-ethylcarboxylate]					

From patent US4738954A, “Novel N^6 -substituted-5'-oxidized adenosine analogs” (Warner-Lambert Company, priority 1985, dated 1988)
